Measurements taken from patent publication US20050008623A1, “In vitro production of dendritic cells from CD14+ monocytes” (priority 2001, published 2005).

Legend:
Assay type in all cases: cell-based, human
[1] = system: Langerhans cells generated in vitro; assay: Chemoattraction and migration of Langerhans cells of Example 6
Langerin+LC population = assay: Maturation marker DC-LAMP expression after TNFα, Langerhans cells; details: 200 IU/ml for 48 hours from day 6
Experimental: (§1) On day 6, the cytokine TNFα is added at a rate of 200 IU/ml for 48 h.
(§2) The advantage of a substantially homogeneous dual population of LC and IDC is the possibility of interacting with both cell types as in the in vivo situation. To study the maturation pathways of LC and IDC generated in vitro, we analyzed the intracytoplasmic expression of maturation marker DC-LAMP on both LC and IDC. To this end, the experiments were performed according to the following protocol: • 2.10^5 cells of a mixed population comprising LC and IDC generated in vitro are incubated successively with: • either 5 microliters of anti-DC-SIGN antibody (2 micrograms/milliliter) or 10 microliters of anti-Langerin antibody (2 micrograms/milliliter), for 30 minutes at 4° C.; • 10 microliters of anti-mouse goat antibody coupled with the fluorochrom FITC (Fluorescein IsoThioCyanate) at the concentration of 1 microgram/milliliter for 30 min at 4° C.; • blocking with normal mouse serum diluted to 1/20; • 10 microliters of anti-DC-LAMP antibody coupled with fluorochrom PE (PhycoErythrin) at the concentration of 1 microgram/milliliter for 30 minutes at 4° C. • the results are expressed as the percentage of LC which are DC-LAMP positive and IDC which are DC-LAMP positive. […]

IDC (DC-SIGN+) = assay: Maturation marker DC-LAMP expression after TNFα, interstitial dendritic cells; details: 200 IU/ml for 48 hours from day 6
Experimental: as §1, §2

[2] = system: dendritic cells generated in vitro (CCR6 receptor); assay: Chemoattraction of undifferentiated immature dendritic cells (CCR6 functionality); details: day 6 cells of Example 4
Experimental: The culture medium is initially supplemented with a third cytokine, namely the cytokine IL-13 at a rate of 10 ng/ml. Before 2 days of culture at the most, the same culture medium devoid of IL-13 is added up to day 6 of culture.

[3] = system: dendritic cells generated in vitro (CCR7 receptor); assay: Chemoattraction of activated mature dendritic cells (CCR7 functionality); details: activated mature cells of Example 8 (TNFα more than 20 hours)
Experimental: Within the framework of the invention, the culture medium is initially supplemented with a third cytokine, namely the cytokine IL-13 at a rate of 10 ng/ml. The culture is carried out up to day 6, irrespective of the incubation time of the cytokine IL-13.

IL-1β: cytokine under whose effect Langerhans cells migrate
migration of Langerhans cells [1]: migrating

TNFα
percentage of LC which are DC-LAMP positive (Langerin+LC population): 50%
expression of maturation marker DC-LAMP on IDC (IDC (DC-SIGN+)): do not express

MIP-3α: ligand of the specific receptor CCR6
chemoattraction of Langerhans cells [1]: capable of being chemoattracted
chemoattraction of dendritic cells [2]: strongly chemoattracted

B1: MIP-3β: ligand of the specific receptor CCR7 (protein, UniProt Q99731 22-98, looked up)
C-C motif chemokine 19: GTNDAEDCCLSVTQKPIPGYIVRNFHYLLIKDGCRVPAVVFTTLRGRQLCAPPDQPWVERIIQRLQRTSAKMKRRSS
chemoattraction of dendritic cells [3]: strongly chemoattracted
